{
  "source": "patent US8263538B2",
  "about": "“Personal wash cleanser with mild surfactant systems comprising defined alkanoyl compounds and defined fatty acyl isethionate surfactant product” (priority 2010, dated 2012)",
  "tested_on": "intrascapular area of the back",
  "test": "14-day cumulative irritation Patch Test (occlusive patch, cleansers diluted to 25% w/w)",
  "details": "for Patch test Total irritation score: higher score = more irritating",
  "method": "This was randomized, double-blind study. A sufficient number of subjects were recruited to ensure that 25 subjects completed the study. The 14-day cumulative irritation test was conducted as follows. Patching occurred for 14 consecutive days, except on Sundays. Patches applied on Saturday were left in place until Monday, when freshly prepared patches were applied. The designated patch test sites were approximately 2 cm×2 cm on the intrascapular area of the back. Approximately 0.2 mL of the test product was placed onto a Parke-Davis Readi-Bandage® occlusive patch that measured 2 cm×2 cm. Solutions were made by diluting the cleansers to 25% w/w in distilled water. The patch was then applied to the designated test site. The patches were secured with hypoallergenic tape (Scanpor {Allerderm} as needed). A 0.5% sodium dodecyl sulfate (SDS) solution was used as the control in the test.\nEach day following application, the patches were removed, the sites evaluated and identical patches reapplied to the same test sites. All evaluations were made using the following 6-point scoring system: • 0=No evidence of any effect • +=Barely perceptible (minimal, faint, uniform or spotty erythema) numerically equivalent to 0.5 • 1=Mild (pink, uniform erythema covering most of the contact site) • 2=Moderate (pink-red, erythema uniform in the entire contact site) • 3=Marked (bright red erythema with/without petechiae or papules) • 4=Severe (deep red erythema with/without vesiculation or weeping)\nIf a dermal reaction of 3 or 4 occur with any of the test articles at any point during the study, further patch testing on that subject was terminated at the test site involved, and the attained score was assigned to that site for the subsequent scheduled test days.\nCumulative irritation scores, which were the sum of the numerical irritation grades assigned daily during the 14-day test period, were calculated at the end of the study to compare mildness of the test products. […] The data were statistically analyzed using Tukey-Kramer Comparison, and statistical significance was determined at the 95% confidence level.",
  "key": {"[1]": {"details": "first series of Table 1 (0.5% SDS control = 783)"}, "[2]": {"details": "second series of Table 1 (0.5% SDS control = 912)"}},
  "data": [
    {"smiles": "CCCCCCCCCCCCOS(=O)(=O)[O-].[Na+]", "note": "[0.5% SDS Solution, sodium dodecyl sulfate]", "values": [
      {"measurement": "Total irritation score compared to 0.5% SDS solution", "setting": "[1]", "result": 100, "unit": "%"},
      {"measurement": "Patch test Total irritation score", "setting": "[1]", "result": 783},
      {"measurement": "Total irritation score compared to 0.5% SDS solution", "setting": "[2]", "result": 100, "unit": "%"},
      {"measurement": "Patch test Total irritation score", "setting": "[2]", "result": 912}
    ]}
  ]
}
